The subject of one experiment is HeLa mtKeima cells. Briefly: Mitophagy assay (mtKeima HCI). The experiment is classed as cell-based, human. To be noted: 5 μM, low-dose CCCP. On the procedure: HCI in 384-well plates was used to calculate the ratio of acidic to neutral mtKeima. Upon treatment with 10 μM CCCP, there was significant increase of the mtKeima ratio. Pre-treatment with compound 4 (dashed line, here shown 5 μM of compound 4) induced this also at low-dose CCCP concentrations while low dose CCCP alone (solid line) had only little effect on the ratio of acidic to neutral mtKeima.
HeLa mtKeima cells were pre-treated for 2 h with 12 different doses of Compounds 1, 2, 3, 4, and 31 before low-dose CCCP was added (3 μM final concentration). 10 μM CCCP was added to positive control wells. Cells were imaged live after 4 h and 8 h of CCCP. Values were normalized to the positive and negative (3 μM CCCP) control values for each time point. Curve fitting was used to calculate EC50 values.
To confirm mitophagy, HeLa cells expressing the pH-sensitive, mitochondria-targeted reporter mitoKeima46 were employed. A characteristic shift in the excitation wavelength of mitoKeima upon lysosomal fusion was used to determine mitochondrial turnover using […]. For mitoKeima experiments (Kim et al., Mol. Neurodegen. (2016) 11:55), cells were seeded in DMEM media lacking phenol red […]. Hoechst counterstain was added as a 5× stock in 5 μL volume. […] Segmentation of cells was performed as above and for each region of interest the ratio of acidic and neutral mitoKeima was calculated. […]

The target in experiment [1] is T1, Parkin (Homo sapiens (Human), UniProt O60260). Put plainly: In vitro ubiquitylation assay with isolated mitochondria. It counts as biochemical. To be noted: mitochondria from CCCP-treated HeLa cells lacking Parkin, vs DMSO. On the procedure: FIGS. 15A-15H show Parkin activation in primary fibroblasts, neuronal cells and in vitro. Positive control (PC) cells were treated with DMSO and 10 μM of CCCP. Negative control (NC) cells were treated with 3.5 μM CCCP, some cells were left untreated (−). […] Vinculin was used as loading control. […] FIG. 15C: Human fibroblasts were directly converted to neurons and treated as in FIG. 15B. […] Beta III tubulin confirmed successful conversion of fibroblasts to iNeurons. FIG. 15D: Rat PC12 cells were treated as in FIG. 15A. Western blots show enhanced ubiquitylation of MFN2 and TOM70, and robust pSer65-Ub induction similar to PC, but not NC cells. FIG. 15E: In vitro E2 discharge assay. Recombinant Parkin was pre-incubated with compound 4 or DMSO as control and was mixed to Ub-loaded UbcH7. […] Control reactions were performed without PINK1 or Parkin. FIG. 15F: In vitro assay with isolated mitochondria from untreated or CCCP-treated HeLa cells lacking Parkin. Mitochondrial preparations were mixed with recombinant Parkin, E1, UbcH7, ATP and either compound 4 or DMSO as a control and incubated for the indicated times. […] Control samples were incubated in reaction mix without Parkin. […]
T1 sequence (O60260 whole entry): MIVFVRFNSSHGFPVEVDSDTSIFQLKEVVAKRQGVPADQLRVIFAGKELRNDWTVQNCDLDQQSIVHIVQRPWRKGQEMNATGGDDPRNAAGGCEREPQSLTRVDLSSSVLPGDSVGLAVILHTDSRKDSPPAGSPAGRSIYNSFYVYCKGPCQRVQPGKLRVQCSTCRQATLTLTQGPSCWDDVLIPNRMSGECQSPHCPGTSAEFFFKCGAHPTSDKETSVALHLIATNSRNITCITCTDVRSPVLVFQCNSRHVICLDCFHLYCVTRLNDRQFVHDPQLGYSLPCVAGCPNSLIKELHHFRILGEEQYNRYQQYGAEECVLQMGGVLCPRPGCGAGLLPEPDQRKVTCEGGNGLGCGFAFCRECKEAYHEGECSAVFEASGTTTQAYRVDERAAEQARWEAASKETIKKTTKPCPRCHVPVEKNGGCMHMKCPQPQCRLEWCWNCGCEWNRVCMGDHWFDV
The in vitro assays with mitochondrial preparations were performed as follows. […] The mitochondrial pellet was resuspended in solution B and the protein concentration determined by BCA. […]

In experiment [2] the target is T1, Parkin. Briefly: Thermal shift (protein melting) assay. It counts as binding. The note with it: 500 nM compound, 50 ng purified Parkin, SYPRO orange. On the procedure:
FIGS. 15A-15H show Parkin activation in primary fibroblasts, neuronal cells and in vitro. Positive control (PC) cells were treated with DMSO and 10 μM of CCCP. Negative control (NC) cells were treated with 3.5 μM CCCP, some cells were left untreated (−). […] Vinculin was used as loading control. […] FIG. 15C: Human fibroblasts were directly converted to neurons and treated as in FIG. 15B. […] Beta III tubulin confirmed successful conversion of fibroblasts to iNeurons. FIG. 15D: Rat PC12 cells were treated as in FIG. 15A. Western blots show enhanced ubiquitylation of MFN2 and TOM70, and robust pSer65-Ub induction similar to PC, but not NC cells. FIG. 15E: In vitro E2 discharge assay. Recombinant Parkin was pre-incubated with compound 4 or DMSO as control and was mixed to Ub-loaded UbcH7. […] Control reactions were performed without PINK1 or Parkin. FIG. 15F: In vitro assay with isolated mitochondria from untreated or CCCP-treated HeLa cells lacking Parkin. […]
To validate direct binding of activating compounds to Parkin as predicted from the in silico approach, a thermofluor shift assay was used. Recombinant purified Parkin was mixed together with compound 4 or DMSO as a control and the melting temperature was monitored using SYPRO Orange dye.
The thermal shift assay was performed as follows. […] Data was exported and analyzed using the Protein Melting Analysis tool (Roche Applied Science).

Molecules are shown by their SMILES.

The text below walks through data of patent US11401255B2, “Small molecule activators of Parkin enzyme function” (Mayo Foundation for Medical Education and Research, priority 2016, dated 2022).

`O=C(Cn1ccnc1-c1ccccn1)Nc1ccc(-c2ccccc2)cc1` [Compound 4]: the “mitophagy flux (ratio of acidic to neutral mtKeima)” value with HeLa mtKeima cells is “enhanced mitophagy flux”. Moreover, at Parkin [1], the MFN1 ubiquitylation entry was “increased ubiquitylation”. The “Parkin melting temperature shift” value on Parkin [2] is 3 °C.
